Measured values taken from the supplement of paper PMC10307832.

Legend:
Assay in all cases: relative viability (nuclei count vs DMSO), 5 days (fraction); higher = more cells survive
Alisertib + Pictilisib = compound: COc1cc(Nc2ncc3c(n2)-c2ccc(Cl)cc2C(c2c(F)cccc2OC)=NC3)ccc1C(=O)O [Alisertib] + CS(=O)(=O)N1CCN(Cc2cc3nc(-c4cccc5[nH]ncc45)nc(N4CCOCC4)c3s2)CC1 [Pictilisib] (partner 1 µM)
In short: (§1)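 Relative viability equals treated-well nuclei counts divided by vehicle-well nuclei counts. Counts came from 4× images of lung cancer cell lines grown in 1536-well plates for 5 days after pin-tool dosing on the day after seeding. Dosing used one drug alone or a fixed anchor-drug dose plus five library-drug doses (not always all listed) in √10 steps, and values are medians of duplicate plates.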

Alisertib + Phenformin = compound: COc1cc(Nc2ncc3c(n2)-c2ccc(Cl)cc2C(c2c(F)cccc2OC)=NC3)ccc1C(=O)O [Alisertib] + N=C(N)NC(=N)NCCc1ccccc1 [Phenformin] (partner 250 µM)
In short: as §1

Alisertib + Palbociclib = compound: COc1cc(Nc2ncc3c(n2)-c2ccc(Cl)cc2C(c2c(F)cccc2OC)=NC3)ccc1C(=O)O [Alisertib] + CC(=O)c1c(C)c2cnc(Nc3ccc(N4CCNCC4)cn3)nc2n(C2CCCC2)c1=O [Palbociclib] (partner 0.5 µM)
In short: as §1

Alisertib + Decitabine = compound: COc1cc(Nc2ncc3c(n2)-c2ccc(Cl)cc2C(c2c(F)cccc2OC)=NC3)ccc1C(=O)O [Alisertib] + Nc1ncn([C@H]2C[C@H](O)[C@@H](CO)O2)c(=O)n1 [Decitabine] (partner 2 µM)
In short: as §1

Row | Cell Line | relative viability (Alisertib + Pictilisib; first compound 0.005 µM) | relative viability (Alisertib + Pictilisib; first compound 0.01581 µM) | relative viability (Alisertib + Pictilisib; first compound 0.05 µM) | relative viability (Alisertib + Pictilisib; first compound 0.1581 µM) | relative viability (Alisertib + Pictilisib; first compound 0.5 µM) | relative viability (Alisertib + Phenformin; first compound 0.005 µM) | relative viability (Alisertib + Phenformin; first compound 0.01581 µM) | relative viability (Alisertib + Phenformin; first compound 0.05 µM) | relative viability (Alisertib + Phenformin; first compound 0.1581 µM) | relative viability (Alisertib + Phenformin; first compound 0.5 µM) | relative viability (Alisertib + Palbociclib; first compound 0.005 µM) | relative viability (Alisertib + Palbociclib; first compound 0.01581 µM) | relative viability (Alisertib + Palbociclib; first compound 0.05 µM) | relative viability (Alisertib + Palbociclib; first compound 0.1581 µM) | relative viability (Alisertib + Palbociclib; first compound 0.5 µM) | relative viability (Alisertib + Decitabine; first compound 0.005 µM) | relative viability (Alisertib + Decitabine; first compound 0.01581 µM) | relative viability (Alisertib + Decitabine; first compound 0.05 µM) | relative viability (Alisertib + Decitabine; first compound 0.1581 µM) | relative viability (Alisertib + Decitabine; first compound 0.5 µM)
1 | LOU-NH91 | 0.508 | 0.487 | 0.448 | 0.366 | 0.392 | 0.582 | 0.668 | 0.508 | 0.372 | 0.32 | 0.505 | 0.529 | 0.511 | 0.501 | 0.397 | 0.799 | 0.77 | 0.651 | 0.524 | 0.45
2 | LU99A | 0.404 | 0.341 | 0.252 | 0.159 | 0.151 | 0.755 | 0.798 | 0.658 | 0.3 | 0.239 | 0.386 | 0.418 | 0.189 | 0.185 | 0.174 | 0.856 | 0.85 | 0.311 | 0.27 | 0.186
3 | NCI-H1395 | 0.566 | 0.517 | 0.597 | 0.492 | 0.377 | 0.427 | 0.413 | 0.44 | 0.358 | 0.329 | 0.603 | 0.6 | 0.597 | 0.44 | 0.388 | 0.649 | 0.618 | 0.505 | 0.471 | 0.393
4 | NCI-H460 | 0.364 | 0.428 | 0.327 | 0.0613 | 0.0689 | 0.474 | 0.343 | 0.0695 | 0.0235 | 0.0304 | 0.143 | 0.13 | 0.123 | 0.0185 | 0.0401 | 0.441 | 0.408 | 0.0826 | 0.0385 | 0.0482
5 | 201T | 0.623 | 0.676 | 0.671 | 0.326 | 0.327 | 0.38 | 0.435 | 0.441 | 0.238 | 0.256 | 0.351 | 0.33 | 0.327 | 0.28 | 0.24 | 0.837 | 0.847 | 0.72 | 0.582 | 0.802
6 | NCI-H1944 | 0.327 | 0.35 | 0.351 | 0.21 | 0.205 | 0.182 | 0.206 | 0.193 | 0.166 | 0.112 | 0.33 | 0.357 | 0.27 | 0.187 | 0.159 | 0.401 | 0.436 | 0.324 | 0.266 | 0.186
7 | NCI-H2405 | 0.433 | 0.358 | 0.365 | 0.274 | 0.176 | 0.366 | 0.46 | 0.371 | 0.28 | 0.247 | 0.497 | 0.504 | 0.495 | 0.317 | 0.257 | 0.648 | 0.748 | 0.632 | 0.39 | 0.277
8 | NCI-H1703 | 0.246 | 0.22 | 0.182 | 0.163 | 0.155 |  |  |  |  |  |  |  |  |  |  |  |  |  |  | 
9 | NCI-H1755 | 0.41 | 0.347 | 0.271 | 0.227 | 0.184 | 0.558 | 0.498 | 0.517 | 0.397 | 0.262 | 0.408 | 0.432 | 0.445 | 0.428 | 0.384 | 0.643 | 0.673 | 0.543 | 0.413 | 0.348
